Earlier results in patent US20170215417A1, “ANTIMICROBIAL COMPOSITIONS” (LIVIONEX, Inc., priority 2013, published 2017).
Where two headings read alike, the source gives them in different places.

Columns and labels:
[1] = @ 79° F.
[2] = tested on: Trichomichosis axillaris polymicrobial infection; conditions: for average time for resolution of the disease: then antimicrobial cream or lotion (Kim, Korean J Med Mycol. 2005)

CS(C)(=O)=O [MSM, methylsulfonylmethane]
water solubility [1]: 34 % w/v

O=C(OOC(=O)c1ccccc1)c1ccccc1 [benzoyl peroxide]
irritation and contact dermatitis with standard treatment ([2]; standard treatment: shaving, then antimicrobial cream or lotion): often results in irritation and contact dermatitis
average time for resolution of the disease ([2]; standard treatment: shaving): 3 weeks

CC[C@H]1OC(=O)[C@H](C)[C@@H](O[C@H]2C[C@@](C)(OC)[C@@H](O)[C@H](C)O2)[C@H](C)[C@@H](O[C@@H]2O[C@H](C)C[C@H](N(C)C)[C@H]2O)[C@](C)(O)C[C@@H](C)C(=O)[C@H](C)[C@@H](O)[C@]1(C)O [erythromycin]
irritation and contact dermatitis with standard treatment ([2]; human, in vivo): often results in irritation and contact dermatitis
average time for resolution of the disease ([2]; standard treatment: shaving): 3 weeks
